The record followed here is PubChem BioAssay (NCI).

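Method: 48-hour compound exposure of cells in 96-well plates, five concentrations, linear interpolation of endpoints. TGI denotes the concentration required for complete inhibition of growth.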 Where a SMILES comes first, the peptide text is derived from it. [ ]: non-standard residue; d: D form. The star is where a group is joined. ξ: configuration not given here. Propanoyl(3-(4-MeO-Ph)) = COc1ccc(CCC(=O)*)cc1; Thr(3ξ) = CC(O)[C@H](N)C(=O)O; dNMeL = CN[C@H](CC(C)C)C(=O)O; ξLac = CC(O)C(=O)O Bounds are passed on as bounds.

Some test systems named below: 786-0 renal; RPMI-8226 leukemia; DU-145 prostate; A498 renal; HT29 colon; HOP-62 NSCLC; HL-60(TB) leukemia; MCF7 breast; T-47D breast.
Holding throughout (assay): DTP human tumour cell line panel, 48 h

On to `COc1nc2ccc(CNc3ccc(C(=O)O)cc3)cc2nc1OC`, for which the TGI with 786-0 renal, with RPMI-8226 leukemia, in the experiment on DU-145 prostate, with A498 renal, in the experiment on HT29 colon and in the experiment with HOP-62 NSCLC was greater than 10 µM throughout. The total growth inhibition concentration (TGI) with HL-60(TB) leukemia, in the experiment on MCF7 breast and with T-47D breast was greater than 10 µM each time.

As to `CC(O)c1cc2c(s1)C(=O)c1scc(C(C)O)c1C2=O` (stereo unspecified), the TGI with 786-0 renal was 6.39 µM; in the experiment with RPMI-8226 leukemia, 0.626 µM; in the experiment with DU-145 prostate it was 1.73 µM; with A498 renal it was 4.36 µM; with HT29 colon it was 5.27 µM; with HL-60(TB) leukemia, greater than 100 µM. Moreover, the results for the TGI in the experiment with MCF7 breast and in the experiment on T-47D breast were 3.01 µM and 4.53 µM, respectively.

As to `COC(=O)C(Cc1ccccc1)NC(=O)c1ccc(CNC(=S)NCc2cccc(CNC(=S)NCc3ccccc3)c2)cc1` (stereo unspecified), the TGI in the experiment with 786-0 renal, in the experiment on RPMI-8226 leukemia, with DU-145 prostate, with A498 renal, in the experiment on HT29 colon and in the experiment with HOP-62 NSCLC was greater than 62.5 µM each time. Moreover, the TGI with HL-60(TB) leukemia, with MCF7 breast and with T-47D breast was greater than 62.5 µM each time.

On to `COc1cc(/C=c2/c3ccccc3n3c2cc(-c2ccccc2)[n+]3C)cc(OC)c1OC`, for which the concentration for total growth inhibition (TGI) is 16.4 µM in the experiment with 786-0 renal; greater than 32.1 µM in the experiment on RPMI-8226 leukemia; 18.4 µM with DU-145 prostate; greater than 58.3 µM with A498 renal; 11.4 µM with HT29 colon; 19.5 µM in the experiment on HOP-62 NSCLC. Moreover, the total growth inhibition concentration (TGI) in the experiment with HL-60(TB) leukemia is 7.2 µM; in the experiment on MCF7 breast it was 20.6 µM; with T-47D breast, 19.3 µM.

For the compound `COC(=O)[C@@H](NC(=O)[C@@H](CC(C)C)N(C)C(=O)[C@@H]1CCCN1C(=O)C(C)O)C(C)OC(=O)CCc1ccc(OC)cc1` (stereo partly specified) (H-[ξLac]P[dNMeL][Thr(3ξ)](Propanoyl(3-(4-MeO-Ph)))-OMe), the TGI with 786-0 renal, with RPMI-8226 leukemia, in the experiment on DU-145 prostate, with A498 renal, in the experiment on HT29 colon and in the experiment on HOP-62 NSCLC was greater than 100 µM in each case. Further, the TGI in the experiment on HL-60(TB) leukemia, in the experiment with MCF7 breast and with T-47D breast was greater than 100 µM throughout.

In the case of `COc1ccc(-c2nnc(CCCCCCCCc3nnc(-c4ccc(OC)cc4)n3N)n2N)cc1`, the TGI in the experiment with 786-0 renal was greater than 31.6 µM; with RPMI-8226 leukemia it was greater than 100 µM; in the experiment with DU-145 prostate, greater than 100 µM; in the experiment with A498 renal, greater than 100 µM; in the experiment with HT29 colon, greater than 100 µM; in the experiment on HOP-62 NSCLC, 65.8 µM. Also, the TGI in the experiment with HL-60(TB) leukemia, with MCF7 breast and in the experiment on T-47D breast was greater than 100 µM throughout.

Take `COc1ccc(-c2nnc(-c3ccncc3)o2)cc1`: the concentration for total growth inhibition (TGI) in the experiment on 786-0 renal, with RPMI-8226 leukemia, with DU-145 prostate, with A498 renal, in the experiment on HT29 colon and in the experiment with HOP-62 NSCLC was greater than 100 µM each time. In addition, the TGI in the experiment on HL-60(TB) leukemia, in the experiment on MCF7 breast and in the experiment with T-47D breast was greater than 100 µM each time.

As for `C=CCCC(On1c(-c2ccc(Cl)cc2)csc1=S)c1ccccc1` (stereo unspecified), the concentration for total growth inhibition (TGI) in the experiment on 786-0 renal, in the experiment with RPMI-8226 leukemia, in the experiment on DU-145 prostate, with A498 renal, with HT29 colon and with HOP-62 NSCLC was greater than 100 µM each time. Further, the results for the TGI in the experiment on HL-60(TB) leukemia, in the experiment on MCF7 breast and in the experiment with T-47D breast were 53.6 µM, greater than 100 µM and greater than 100 µM, respectively.

Take `COC12OC3CC4(C)C(=CC3OC(OC(C)C1O)C2O)CCC1C4CCC2(C)C(c3ccc(=O)oc3)CCC12O` (stereo unspecified): the total growth inhibition concentration (TGI) worked out at 0.00195 µM in the experiment on 786-0 renal; 0.00409 µM in the experiment on RPMI-8226 leukemia; 0.00209 µM in the experiment with DU-145 prostate; 0.0144 µM in the experiment with A498 renal; 0.00277 µM in the experiment with HT29 colon; 0.00311 µM with HOP-62 NSCLC. For the same compound, the figures for the total growth inhibition concentration (TGI) in the experiment on HL-60(TB) leukemia, with MCF7 breast and in the experiment with T-47D breast were 0.00215 µM, 0.00432 µM and 0.0782 µM, respectively.

Turning to `CCCC(=O)Nc1cc(/C=C/C(=O)N2CC(CCl)c3c2cc([N+](=O)[O-])c2ccccc32)n(C)c1` (stereo unspecified), the TGI in the experiment on 786-0 renal was greater than 100 µM; with RPMI-8226 leukemia, greater than 100 µM; in the experiment with DU-145 prostate, greater than 100 µM; with A498 renal, greater than 87.9 µM; in the experiment with HT29 colon it was greater than 100 µM; in the experiment on HOP-62 NSCLC it was greater than 100 µM. Also, the TGI was 27.2 µM with HL-60(TB) leukemia, greater than 100 µM in the experiment with MCF7 breast and greater than 100 µM with T-47D breast.

Regarding `O=C(NN1C(=O)CSC1c1ccco1)c1ccncc1` (stereo unspecified), the TGI in the experiment with 786-0 renal, with RPMI-8226 leukemia, in the experiment on DU-145 prostate, in the experiment with A498 renal, with HT29 colon and with HOP-62 NSCLC was greater than 100 µM throughout. The TGI in the experiment on HL-60(TB) leukemia, in the experiment on MCF7 breast and in the experiment on T-47D breast was greater than 100 µM in each case.

Consider `COC(=O)c1c(O)ccc2c1c1c(n2Cc2ccccn2)C(=O)c2ccccc2C1=O`, for which the total growth inhibition concentration (TGI) in the experiment on 786-0 renal is greater than 100 µM; with RPMI-8226 leukemia, greater than 100 µM; with DU-145 prostate, greater than 100 µM; in the experiment on A498 renal it was greater than 100 µM; with HT29 colon, 17.4 µM; in the experiment with HOP-62 NSCLC it was 77.7 µM. Moreover, the concentration for total growth inhibition (TGI) with HL-60(TB) leukemia, with MCF7 breast and in the experiment on T-47D breast was greater than 100 µM throughout.

Regarding `O=C(CCc1ccc(O)c(O)c1)NCCc1ccc(O)c(O)c1`, the TGI with 786-0 renal was 33.8 µM; in the experiment on RPMI-8226 leukemia, greater than 100 µM; in the experiment with DU-145 prostate it was greater than 100 µM; with A498 renal it was greater than 100 µM; in the experiment with HT29 colon, greater than 100 µM; in the experiment on HOP-62 NSCLC it was greater than 100 µM. Besides, the TGI with HL-60(TB) leukemia is greater than 100 µM; with MCF7 breast, 45.4 µM; with T-47D breast, greater than 100 µM.

As for `O=C1c2ccccc2-c2nnc(-c3ccc(Cl)cc3)cc21`, the total growth inhibition concentration (TGI) in the experiment on 786-0 renal, in the experiment with RPMI-8226 leukemia, in the experiment on DU-145 prostate, with A498 renal, in the experiment with HT29 colon and with HOP-62 NSCLC was greater than 10 µM in each case. The TGI in the experiment on HL-60(TB) leukemia, in the experiment with MCF7 breast and in the experiment on T-47D breast was greater than 10 µM throughout.

On to `CCOc1cc2c(cc1O)CC[C@@H]1[C@@H]2CC[C@]2(C)C(OS(=O)OC3CC[C@@H]4[C@H]5CCc6cc(O)c(OCC)cc6[C@@H]5CC[C@@]34C)CC[C@@H]12` (stereo partly specified), for which the total growth inhibition concentration (TGI) with 786-0 renal is greater than 34.3 µM; in the experiment on RPMI-8226 leukemia it was 13.9 µM; in the experiment with DU-145 prostate it was 11.5 µM; in the experiment with A498 renal, 36.6 µM; in the experiment with HT29 colon, greater than 53.7 µM; in the experiment with HOP-62 NSCLC, greater than 27 µM. Besides, the figures for the TGI in the experiment with HL-60(TB) leukemia, in the experiment on MCF7 breast and in the experiment on T-47D breast were 0.929 µM, 7.01 µM and greater than 100 µM, respectively.

As for `COc1c(-c2cccs2)oc2c(CC(=O)O)cccc2c1=O`, the concentration for total growth inhibition (TGI) in the experiment with 786-0 renal is greater than 100 µM; in the experiment with RPMI-8226 leukemia, 5.92 µM; in the experiment with DU-145 prostate, greater than 100 µM; in the experiment on A498 renal, greater than 100 µM; in the experiment on HOP-62 NSCLC, greater than 100 µM; in the experiment on HL-60(TB) leukemia, greater than 100 µM. The TGI with MCF7 breast and in the experiment with T-47D breast was greater than 100 µM in each case.

Turning to `c1ccc(CCN2CCN=C2Cc2ccccc2)cc1`, the TGI with 786-0 renal, with RPMI-8226 leukemia, in the experiment with DU-145 prostate, in the experiment on A498 renal, with HT29 colon and in the experiment with HOP-62 NSCLC was greater than 100 µM throughout. In addition, the concentration for total growth inhibition (TGI) with HL-60(TB) leukemia, in the experiment on MCF7 breast and in the experiment with T-47D breast was greater than 100 µM throughout.

`N#CCOc1cccc(C2(N3CC=CCC3)CCCCC2)c1`: the total growth inhibition concentration (TGI) in the experiment with 786-0 renal, in the experiment with RPMI-8226 leukemia, in the experiment on DU-145 prostate, in the experiment with A498 renal, with HT29 colon and in the experiment with HOP-62 NSCLC was greater than 100 µM throughout. In addition, the TGI in the experiment on HL-60(TB) leukemia, with MCF7 breast and in the experiment with T-47D breast was greater than 100 µM throughout.

Take `Clc1cc(OCC23CC4CC(CC(C4)C2)C3)nc(OCC23CC4CC(CC(C4)C2)C3)n1`: the TGI in the experiment on 786-0 renal, in the experiment on RPMI-8226 leukemia, in the experiment with DU-145 prostate, with A498 renal, in the experiment with HT29 colon and with HOP-62 NSCLC was greater than 100 µM each time. In addition, the concentration for total growth inhibition (TGI) in the experiment on HL-60(TB) leukemia, in the experiment on MCF7 breast and with T-47D breast was greater than 100 µM each time.

On to `COC(=O)c1c(O)ccc2c1c1c(n2Cc2ccccc2OC)C(=O)c2ccccc2C1`, for which the TGI with 786-0 renal is greater than 100 µM; in the experiment on RPMI-8226 leukemia it was 72.2 µM; in the experiment with DU-145 prostate it was greater than 100 µM; with A498 renal, greater than 100 µM; with HT29 colon it was greater than 100 µM; in the experiment with HOP-62 NSCLC it was greater than 100 µM. Further, the TGI in the experiment on HL-60(TB) leukemia, with MCF7 breast and in the experiment with T-47D breast was greater than 100 µM throughout.

Regarding `O=C(O)CN(CC(=O)O)Cc1ccn(-c2cccc(-n3ccc(CN(CC(=O)O)CC(=O)O)n3)n2)n1`, the concentration for total growth inhibition (TGI) with 786-0 renal, in the experiment on RPMI-8226 leukemia, with DU-145 prostate, in the experiment on HT29 colon, with HOP-62 NSCLC and in the experiment with HL-60(TB) leukemia was greater than 100 µM each time. Moreover, the concentration for total growth inhibition (TGI) in the experiment on MCF7 breast and in the experiment on T-47D breast was greater than 100 µM throughout.

By TGI is commonly meant the concentration at which net growth stops.
